Measurements from patent publication US11834401B2, “Treating and preventing diseases by modulating cell mechanics” (THE JOHNS HOPKINS UNIVERSITY, priority 2013, dated 2023).

Columns and labels:
Format in all cases: cell-based, human
A10.7 cells = assay: Micropipette aspiration mechanics; settings: PDAC A10.7 cells
Experimental: The instrumental and experimental setups have been previously described (Effler J C, et al., 2006; Kee Y-S, et al., 2013). Micropipette aspiration assays were all carried out in growth media with 0.1% DMSO. For cortical tension measurements of Dictyostelium cells, pressure was applied to the cell cortex with a micropipette (2-3 m radius, Rp) to the equilibrium pressure (ΔP) where the length of the cell inside the pipette (Lp) was equal to Rp. The effective cortical tension (Teff) was calculated by applying the Young-Laplace equation: ΔP=2Teff(1/Rp-1/Rc), where Rc is the radius of the cell and ΔP is the equilibrium pressure when Lp=Rp (Derganc J, et al., 2000; Octtaviani E, et al., 2006). For creep tests on mammalian strains, a constant aspiration stress was applied over 60 s. The micropipette radius was 3.5-4.5 m. For quantification, the Lp/Rp ratio values was measured every two seconds and plotted as a function of time. A10.7 and HEK293 cells could only be aspirated at a low pressure range (0.15 nN/μm^2), while HPDE, ASPC-1, and HL-60 cells could be aspirated at higher pressure ranges (0.25 nN/μm^2) because they were stiffer.

[1] = system: myosin IIA (phosphor-Ser1943); assay: Western blot of phospho-myosin IIA; settings: HPDE or ASPC-1 cells
Experimental: Pellet was resuspended in 100 μl lysis buffer minus Triton X-100, and both pellet and supernatant fractions were heated to 100° C. for 3 min with RNaseA. Samples were incubated at 37° C. for 30 min and then heated to 100° C. in sample buffer for 5 min. Samples were loaded on a 15% SDS-polyacrylamide gel. Western blot analyses of phospho-myosin IIA was performed on whole cell lysates of cells treated as above in lysate buffer with 10 mM NaF.

ASPC-1 cells = assay: Transwell migration assay; settings: 24 hr transwell
Experimental: Cells were starved with serum-reduced media for 24 hr, harvested from flasks with trypsin/EDTA, washed with media containing 1% FBS, and resuspended at cell density of 2-5×10^5 cells/ml. 0.2 ml of cells were placed in the upper chamber of transwell (BD Biosciences), with 20% FBS-containing media in the lower well and incubated at 37° C. for 24 hr. Both sides of the transwell contained 4-HAP at the appropriate concentration, with final DMSO concentration at 0.0025%. The transwells were MeOH-fixed and stained with 0.5% crystal violet for 20 min, followed by counting from six random microscopic fields.

[2] = system: AsPC-1 shCTRL and shIIA cells; assay: Transwell migration of knockdown lines
Experimental: AsPC-1 cells were plated in 6.5-mm PET membrane transwell inserts with 8-μm pores (Costar #3464) in a 24-well plate at a concentration of 5,000 cells per well. Cells were allowed to adhere overnight in AsPC-1 media. Cell media was then changed to serum-free RPMI 1640 to starve cells for 18 hrs. Following starvation, cells were stimulated by changing media in the top chamber to fresh serum-free RPMI 1640±500 nM 4-HAP and complete AsPC-1 media ±500 nM 4HAP. Cells were then incubated for 24 hrs at 37 degrees C./5% CO2 and then fixed in 4% paraformaldehyde, permeabilized in 0.1% Triton X-100 and stained with 1 μg/ml DAPI. […] A total of five random fields per transwell insert were imaged using a 10× objective (NA) and nuclei were averaged.

[3] = system: Panc10.05 tissue spheroids; assay: Tissue spheroid dissemination and cortical actin structure
Experimental: Tissue spheroids were grown by plating Panc10.05 cells on a drop of Matrigel (Becton-Dickinson) in an 8-well slide chamber (6,500 cells per well) and grown in RPMI 1640 media (2% serum, 2% matrigel, and 10 ng/ml EGF). Spheroids were grown for 14 days with regular media changes, then aspirated off the surface of the matrigel, washed with ice-cold PBS with mild centrifugation ([…], 5 min). For all 2D spreading assays, spheroids were then plated on 50 µg/ml collagen-coated 8-well coverslips (MatTek) and incubated for 48 hrs in complete PANC media with 500 nM 4-HAP or PBS control. For 3D invasion assays, spheroids were resuspended in a 1.5 mg/ml collagen solution (Life Technologies) and then plated in 8-well chambered coverslips. […] All spheroid samples were fixed in 4% paraformaldehyde for 15 min at 25° C. and permeabilized in 0.1% Triton X-100 for 15 min at 25° C. The actin cytoskeleton was visualized with rhodamine-phalloidin ([…]) for 30 min. Two-dimensional spreading was visualized with Olympus Spinning disk microscope (40× oil objective, 1.30NA) or Nikon-NSIM (100× objective, 1.4NA) with an Andor EMCCD camera controlled by NIS-Elements software. Three-dimensional invasion through collagen was visualized with an Olympus Spinning Disk microscope (20× air, 0.4NA).
Quantification of 2D spheroids plated on a thin layer of collagen was performed using a custom-designed Matlab script (Mathworks, Natick, Mass.). A maximum intensity projection of 20 z-slices was extracted from each of the images and converted to 16-bit grayscale before enhancing the pixel intensity (Matlab command: histeq). The enhanced image was then segmented into foreground and background using the Chan-Vese method (activecountour), followed by filtering of small regions (bwareaopen), and morphological erosion (imerode). The boundary from this object was then obtained (bwboundary) and average background intensity was subtracted. This method was used for more than 80% of the images. […] This option allowed the user to select a region of interest surrounding the outer edge of the spheroid (roipoly). Anything outside of this boundary was masked and subsequently not considered (regionfill). Following this, a similar binarization/background subtraction regime was implemented on the unmasked region and the boundary was traced.
For each point along the boundary, a line perpendicular to the edge was computed and the intensity along this line was used to linearize the cortex. The resultant matrix was converted into a grayscale image. The Hough Transform was used to determine the continuity of the actin belt along the edge of the cortex. Linearized cortex images were binarized using a threshold chosen to best differentiate belt from non-belt for each set of images (imbinarize), followed by filtering of small regions (bwareaopen), and morphological dilation (imdilate). The Hough Transform was performed on this image (hough), and Hough peaks and lines identified (houghpeaks, houghlines). These were used to create a continuity score defined by (E Hough line lengths)/(number of lines+length of image). In this metric, higher scores indicate a more continuous actin belt at the cortex. Additionally, we computed: a coarseness index of the cortex (std2) to describe actin distribution, the percentage of white pixels of the binarized image to characterize actin belt thickness, and the ratio of white pixels to gray pixels (greater than 0.15) to describe the distribution of fluorescence.

`CC(=O)c1ccc(O)cc1` [4-HAP, 4-hydroxyacetophenone] was tested, and the cortical tension (A10.7 cells) was “decreases the cortical tension”, the “myosin IIA phosphorylation (phosphor-Ser1943)” value [1] was “little effect on myosin IIA phosphorylation” and the in vitro migration (ASPC-1 cells) was “dose-dependent decrease”. For the same compound, the transwell migration [2] was “moderate dose-dependence reduction of transwell migration”, the dissemination from spheroids ([3]; NMIIA knockdown, 3D collagen I, 24 hours) was “decreased” and the dissemination from spheroids ([3]; control knockdown, 3D collagen I, 24 hours) was “decreased”. For the same compound, the “actin band continuity score” value ([3]; control spheroids) was “decreased upon treatment with 4-HAP”, the “cortex coverage by actin bands” value ([3]; control spheroids) was “decreased cortex coverage” and the “cortex coverage by actin bands” value ([3]; myo IIA knockdowns) was “the coverage increased”. The “cortex coverage by actin bands” value ([3]; myo IIC knockdowns) was “unaffected by the treatment of 4-HAP”, the “increase in median percentage staining of actin at tissue edge” value ([3]; myosin IIA knockdown spheroids, 2D) was 2 fold and the dissemination from spheroids ([3]; myosin IIC-depleted spheroids) was “no effect was observed”. For the same compound, the “actin band continuity score” value ([3]; shIIA spheroids, p=0.01) was “increased significantly” and the actin belt formation ([3]; when myosin IIC is present) was “Actin belts are formed”.
